# Laboratory results published in ChEMBL document CHEMBL6096722, “A Hypoxia-Activated BODIPY-Azo Anticancer Prodrug for Bimodal Chemo-Photodynamic Therapy” (J Med Chem, 2025).
# Activity calls are given as the source filed them. No cut-off for these calls is given here.
# What was measured:
# A-375 [1] = assay: Induction of apoptosis in human A-375 cells assessed as necrotic cells at 6 uM incubated for 24 hrs under hypoxia condition by Annexin V-FITC staining based flow cytometry analysis; format: functional
# [2] = Retention time of the compound by HPLC-MASS analysis; format: physicochemical
# A-375 [3] = assay: Cytotoxicity against human A-375 cells assessed as cell viability at upto 100 uM preincubated with compound for 4 hrs followed by light irradiation for 30 mins and measured after 24 hrs under hypoxic condition by CCK-8 assay; format: functional, cell-based; conditions: time 28.5 hrs
# A-375 [4] = assay: Induction of apoptosis in human A-375 cells assessed as necrotic cells at 6 uM incubated for 24 hrs under normoxia condition by Annexin V-FITC staining based flow cytometry analysis; format: functional
# A-375 [5] = assay: Induction of apoptosis in human A-375 cells assessed as late apoptotic cells at 4 uM incubated for 24 hrs under hypoxia condition by Annexin V-FITC staining based flow cytometry analysis; format: functional
# A-375 [6] = assay: Induction of apoptosis in human A-375 cells assessed as viable cells at 2 uM incubated for 24 hrs under normoxia condition by Annexin V-FITC staining based flow cytometry analysis; format: functional; conditions: read-out: Activity
# A-375 [7] = assay: Induction of apoptosis in human A-375 cells assessed as early apoptotic cells at 2 uM incubated for 24 hrs under normoxia condition by Annexin V-FITC staining based flow cytometry analysis; format: functional
# [8] = Photostability of compound in PBS buffer at pH 7.4 at 10 uM under 20 W/cm2 white LED light irradiation measured for 60 mins by absorption based assay; format: physicochemical; conditions: pH 7.4, 1 h
# A-375 [9] = assay: Induction of apoptosis in human A-375 cells assessed as late apoptotic cells at 6 uM incubated for 24 hrs under hypoxia condition by Annexin V-FITC staining based flow cytometry analysis; format: functional
# A-375 [10] = assay: Induction of apoptosis in human A-375 cells assessed as early apoptotic cells at 4 uM incubated for 24 hrs under hypoxia condition by Annexin V-FITC staining based flow cytometry analysis; format: functional
# A-375 [11] = assay: Induction of apoptosis in human A-375 cells assessed as early apoptotic cells at 6 uM incubated for 24 hrs under normoxia condition by Annexin V-FITC staining based flow cytometry analysis; format: functional
# A-375 [12] = assay: Induction of apoptosis in human A-375 cells assessed as late apoptotic cells at 4 uM incubated for 24 hrs under normoxia condition by Annexin V-FITC staining based flow cytometry analysis; format: functional
# A-375 [13] = assay: Cytotoxicity against human A-375 cells assessed as cell viability at 0.25 to 16 uM incubated for 4 hrs by CCK-8 assay; format: functional; conditions: dose 0.25-16 µM
# A-375 [14] = assay: Induction of apoptosis in human A-375 cells assessed as viable cells at 6 uM incubated for 24 hrs under hypoxia condition by Annexin V-FITC staining based flow cytometry analysis; format: functional; conditions: read-out: Activity
# [15] = Induction of singlet oxygen quantum yield under irradiation with 590 nm LED light by DPBF based assay; format: functional
# A-375 [16] = assay: Cytotoxicity against human A-375 cells assessed as cell viability at 100 uM incubated for 4 hrs by CCK-8 assay; format: functional; conditions: read-out: Activity
# A-375 [17] = assay: Cytotoxicity against human A-375 cells assessed as cell viability at 100 uM preincubated with compound for 4 hrs followed by light irradiation for 30 mins and measured after 24 hrs by CCK-8 assay; format: functional, cell-based; conditions: time 28.5 hrs
# A-375 [18] = assay: Induction of apoptosis in human A-375 cells assessed as early apoptotic cells at 4 uM incubated for 24 hrs under normoxia condition by Annexin V-FITC staining based flow cytometry analysis; format: functional
# A-375 [19] = assay: Antitumor activity against human A-375 cells assessed as cell viability incubated for 4 hrs under normoxic condition by MTT assay; format: functional, cell-based; conditions: A-375, 4 h
# [20] = Cytotoxicity against human HUVEC cells assessed as cell viability at upto 100 uM incubated for 4 hrs by CCK-8 assay; format: toxicity, cell-based; conditions: read-out: Activity
# A-375 [21] = assay: Antitumor activity against human A-375 cells assessed as cell viability preincubated with compound for 4 hrs followed by light irradiation for 30 mins and measured after 24 hrs under hypoxic condition by MTT assay; format: functional, cell-based; conditions: A-375, light or radiation study
# A-375 [22] = assay: Induction of apoptosis in human A-375 cells assessed as necrotic cells at 2 uM incubated for 24 hrs under normoxia condition by Annexin V-FITC staining based flow cytometry analysis; format: functional
# A-375 [23] = assay: Induction of apoptosis in human A-375 cells assessed as viable cells at 6 uM incubated for 24 hrs under normoxia condition by Annexin V-FITC staining based flow cytometry analysis; format: functional; conditions: read-out: Activity
# A-375 [24] = assay: Induction of apoptosis in human A-375 cells assessed as viable cells at 2 uM incubated for 24 hrs under hypoxia condition by Annexin V-FITC staining based flow cytometry analysis; format: functional; conditions: read-out: Activity
# A-375 [25] = assay: Induction of apoptosis in human A-375 cells assessed as viable cells at 4 uM incubated for 24 hrs under hypoxia condition by Annexin V-FITC staining based flow cytometry analysis; format: functional; conditions: read-out: Activity
# A-375 [26] = assay: Induction of apoptosis in human A-375 cells assessed as early apoptotic cells at 2 uM incubated for 24 hrs under hypoxia condition by Annexin V-FITC staining based flow cytometry analysis; format: functional
# A-375 [27] = assay: Antitumor activity against human A-375 cells assessed as cell viability incubated for 4 hrs under hypoxia condition by MTT assay; format: functional, cell-based; conditions: A-375, 4 h
# A-375 [28] = assay: Induction of apoptosis in human A-375 cells assessed as late apoptotic cells at 2 uM incubated for 24 hrs under hypoxia condition by Annexin V-FITC staining based flow cytometry analysis; format: functional
# [29] = Selectivity index, ratio of IC50 for antitumor activity against human A-375 cells assessed as cell viability incubated for 4 hrs under hypoxic condition by MTT assay to IC50 for antitumor activity against human A-375 cells assessed as cell viability incubated for 4 hrs under normoxic condition by MTT assay; format: functional
# A-375 [30] = assay: Induction of apoptosis in human A-375 cells assessed as viable cells at 4 uM incubated for 24 hrs under normoxia condition by Annexin V-FITC staining based flow cytometry analysis; format: functional; conditions: read-out: Activity
# A-375 [31] = assay: Induction of apoptosis in human A-375 cells assessed as necrotic cells at 4 uM incubated for 24 hrs under hypoxia condition by Annexin V-FITC staining based flow cytometry analysis; format: functional
# A-375 [32] = assay: Induction of apoptosis in human A-375 cells assessed as late apoptotic cells at 2 uM incubated for 24 hrs under normoxia condition by Annexin V-FITC staining based flow cytometry analysis; format: functional
# A-375 [33] = assay: Cytotoxicity against human A-375 cells assessed as cell viability at upto 100 uM incubated for 4 hrs under hypoxic condition by CCK-8 assay; format: functional, cell-based
# [34] = Photostability of compound in PBS buffer at pH 7.4 at 10 uM under 20 W/cm2 white LED light irradiation measured upto 10 mins by absorption based assay; format: physicochemical; conditions: pH 7.4, 10 min
# A-375 [35] = assay: Antitumor activity against human A-375 cells assessed as cell viability preincubated with compound for 4 hrs followed by light irradiation for 30 mins and measured after 24 hrs under normoxic condition by MTT assay; format: functional, cell-based; conditions: A-375, light or radiation study
# A-375 [36] = assay: Induction of ROS generation in human A-375 cells assessed as increase in green fluorescence at 10 uM preincubated with compound for 24 hrs followed by light irradiation for 30 mins and measured after 30 mins by DCFH-DA staining based fluorescence microscopic analysis; format: functional, cell-based; conditions: time 25.0 hrs
# A-375 [37] = assay: Induction of apoptosis in human A-375 cells assessed as early apoptotic cells at 6 uM incubated for 24 hrs under hypoxia condition by Annexin V-FITC staining based flow cytometry analysis; format: functional
# A-375 [38] = assay: Induction of apoptosis in human A-375 cells assessed as necrotic cells at 2 uM incubated for 24 hrs under hypoxia condition by Annexin V-FITC staining based flow cytometry analysis; format: functional
# A-375 [39] = assay: Induction of apoptosis in human A-375 cells assessed as late apoptotic cells at 6 uM incubated for 24 hrs under normoxia condition by Annexin V-FITC staining based flow cytometry analysis; format: functional
# A-375 [40] = assay: Induction of ROS generation in human A-375 cells assessed as increase fluorescence intensity at 10 uM incubated with compound for 24 hrs by DCFH-DA staining based analysis; format: functional, cell-based
# A-375 [41] = assay: Antitumor activity against human A-375 cells xenografted in male BALB/c mouse assessed as tumor growth inhibition at 2.9 mg/ml, ip measured for 60 mins with light irradiation; format: functional; conditions: A-375, light or radiation study, 1 h, read-out: TGI
# A-375 [42] = assay: Induction of apoptosis in human A-375 cells assessed as necrotic cells at 4 uM incubated for 24 hrs under normoxia condition by Annexin V-FITC staining based flow cytometry analysis; format: functional
# A-375 [43] = assay: Anticancer activity against human A-375 cells measured at 12 to 30 hrs under hypoxic condition; format: functional, cell-based; conditions: time 12-30 hrs
# [44] = Toxicity in BALB/c mouse assessed at 2.9 mg/ml, ip assessed as morphological changes in tumor measured for 60 mins with light irradiation by H and E staining based analysis; format: organism-based; conditions: in vivo, 1 h
# A-375 [45] = assay: Cytotoxicity against human A-375 cells assessed as cell viability at >1 uM preincubated with compound for 4 hrs followed by light irradiation for 30 mins and measured after 24 hrs by CCK-8 assay; format: functional, cell-based; conditions: time 28.5 hrs
# [46] = Toxicity in BALB/c mouse assessed change in body weight at 2.9 mg/ml, ip measured for 60 mins with light irradiation; format: organism-based; conditions: in vivo, 1 h
# A-375 [47] = assay: Anticancer activity against human A-375 cells measured at 24 hrs under hypoxic condition; format: functional, cell-based
smiles,measurement,setting,value
CC1=C(Br)C(C)=[N+]2C1=C(c1ccccc1)c1c(C)c(Br)c(/C=C/c3ccc(OCc4ccc(/N=N/c5ccc(N(CCCl)CCCl)cc5)cc4)cc3)n1[B-]2(F)F,Activity,A-375 [1],1.274%
same,Retention_time,[2],1.422 min
same,Activity,A-375 [3],Active
same,Activity,A-375 [4],0.247%
same,Activity,A-375 [5],3.098%
same,viability at 2 µM,A-375 [6],92.7%
same,Activity,A-375 [7],4.467%
same,Stability,[8],Stable
same,Activity,A-375 [9],3.285%
same,Activity,A-375 [10],0.147%
same,Activity,A-375 [11],12.663%
same,Activity,A-375 [12],6.769%
same,Activity,A-375 [13],>80%
same,viability at 6 µM,A-375 [14],93.6%
same,Activity,[15],Active
same,viability at 100 µM,A-375 [16],~50%
same,Activity,A-375 [17],Active
same,Activity,A-375 [18],7.534%
same,IC50,A-375 [19],> 100 µM
same,"viability at 4 h, 100 µM",[20],> 90%
same,IC50,A-375 [21],4.18 µM
same,Activity,A-375 [22],0.058%
same,viability at 6 µM,A-375 [23],71.7%
same,viability at 2 µM,A-375 [24],96.3%
same,viability at 4 µM,A-375 [25],94.8%
same,Activity,A-375 [26],0.809%
same,IC50,A-375 [27],> 16 µM
same,Activity,A-375 [28],1.663%
same,Ratio IC50,[29],11.02
same,viability at 4 µM,A-375 [30],85.5%
same,Activity,A-375 [31],0.975%
same,Activity,A-375 [32],2.806%
same,Activity,A-375 [33],Active
same,Stability,[34],Stable
same,IC50,A-375 [35],1.35 µM
same,Activity,A-375 [36],Active
same,Activity,A-375 [37],1.832%
same,Activity,A-375 [38],13.664%
same,Activity,A-375 [39],15.404%
same,Activity,A-375 [40],Active
same,inhibition in vivo at 2900 µg/mL,A-375 [41],92%
same,Activity,A-375 [42],0.185%
CC1=C(Br)C(C)=[N+]2C1=C(c1ccccc1)c1c(C)c(Br)c(/C=C/c3ccc(O)cc3)n1[B-]2(F)F,Retention_time,[2],3.5 min
same,Activity,A-375 [3],Active
same,Stability,[8],Stable
same,Activity,A-375 [43],Active
same,Activity,A-375 [13],>80%
same,Activity,[15],Active
same,viability at 100 µM,A-375 [16],~50%
same,Activity,A-375 [17],Active
same,IC50,A-375 [19],> 100 µM
same,"viability at 4 h, 100 µM",[20],> 90%
same,IC50,A-375 [21],0.77 µM
same,Activity,[44],Non-toxic
same,IC50,A-375 [27],> 16 µM
same,Activity,A-375 [45],Active
same,Ratio IC50,[29],309.63
same,Activity,A-375 [33],Active
same,Activity,[46],Non-toxic
same,Stability,[34],Stable
same,IC50,A-375 [35],6.99 µM
same,Activity,A-375 [47],Active
same,Activity,A-375 [36],Active
same,Activity,A-375 [40],Active
same,inhibition in vivo at 2900 µg/mL,A-375 [41],71%
